{"source": "ChEMBL document CHEMBL1240321", "about": "“Cyclostreptin binds covalently to microtubule pores and lumenal taxoid binding sites” (Nat Chem Biol, 2007)", "key": {"A549": {"tested_on": "A549", "experiment": "Induction of mitotic cell cycle arrest in human A549 cells assessed as accumulation of cells at SubG1 phase at 100 nM after 24 hrs by flow cytometry (Rvb= 25%)", "format": "functional"}, "[1]": {"experiment": "Induction of mitotic cell cycle arrest in potoroo PtK2 cells assessed as accumulation of cells at SubG1 phase at 2 uM treated for 7 hrs, washed followed by 16 hrs incubation by flow cytometry (Rvb= 2%)", "format": "functional, Potorous tridactylus"}, "[2]": {"experiment": "Induction of mitotic cell cycle arrest in human A2780AD cells assessed as accumulation of cells at SubG1 phase at 100 nM after 24 hrs by flow cytometry (Rvb= 4.1%)", "format": "functional, A2780 ADR"}}}
{"smiles": "CC1=C[C@H]2[C@@H](O)[C@H](C)[C@@H](O)[C@@H]2[C@H]2[C@@H]3C4=C5O[C@](C)(CC[C@@H](OC4=O)[C@H]5C)[C@@H]3C[C@@H]12", "note": "[CYCLOSTREPTIN]", "values": [{"measurement": "Activity", "setting": "A549", "value": 15, "unit": "%"}, {"measurement": "Activity", "setting": "[1]", "value": 3.5, "unit": "%"}, {"measurement": "Activity", "setting": "[2]", "value": 16.4, "unit": "%"}]}
